Experimental findings from US20240239775A1, “FXR REGULATOR, PREPARATION METHOD THEREFOR, PHARMACEUTICAL COMPOSITION THEREOF AND USE THEREOF” (QINGDAO RUIJI MEDICAL TECHNOLOGY CO., LTD., priority 2021, published 2024) are described below.

Molecules are shown by their SMILES.

The target of one experiment is T1, FXR (Homo sapiens, UniProt Q96RI1).
T1 construct: 5 μL of 20 nM FXR-LBD Complete Coregulator buffer G; purchased ThermoFisher PV4833
T1 sequence (Q96RI1 262-486 limits assumed): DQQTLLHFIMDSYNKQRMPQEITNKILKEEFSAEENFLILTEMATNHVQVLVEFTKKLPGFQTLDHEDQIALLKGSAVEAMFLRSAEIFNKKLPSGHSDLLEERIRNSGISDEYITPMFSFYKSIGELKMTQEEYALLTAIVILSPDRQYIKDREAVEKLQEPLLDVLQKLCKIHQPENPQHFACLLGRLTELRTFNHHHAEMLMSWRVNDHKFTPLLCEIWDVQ
Briefly: FXR antagonist screening by TR-FRET (LanthaScreen TR-FRET FXR co-activation assay kit). The note with it: Table 1.1, FXR antagonistic activity; TR-FRET with CDCA; geometric means of at least two independent runs. The format is biochemical. In outline: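 FXR-LBD (20 nM working solution) mixed with compound, CDCA (200 μM working solution) as agonist, Fluorescein-SRC2-2 and Tb-anti-GST antibody in Coregulator buffer G; 10 h at room temperature. Coactivator recruitment read by TR-FRET, triplicate wells.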
The molecule `CCOC(=O)c1oc2ccc(S(=O)(=O)N(CCc3ccccc3)c3ccc(N4CCN(C(=O)OC(C)(C)C)CC4)nc3)cc2c1C` [Example M8-75, ethyl 3-methyl-5-(N-(6-(4-(tert-butoxycarbonyl)piperazin-1-yl)pyridin-3-yl)-N-phenethylsulfamoyl)benzofuran-2-carboxylate] returned an IC50 of 50 to 100 µM.

`CCOC(=O)c1oc2ccc(S(=O)(=O)N(CCc3ccccc3)Cc3ccc(C(C)(C)C)cc3)cc2c1C` [Example M4-37, ethyl 3-methyl-5-(N-(4-(tert-butyl)benzyl)-N-phenethylsulfamoyl)benzofuran-2-carboxylate] yielded a half-maximal inhibitory concentration (IC50) of 50 to 100 µM. The same measure, in the same setting: with `Cc1c(C(=O)O)oc2ccc(S(=O)(=O)N(CCc3ccccc3)c3ccc(N4CCN(S(C)(=O)=O)CC4)cc3)cc12` [Example F27-S72, 3-methyl-5-(N-(4-(4-(methylsulfonyl)piperazin-1-yl)phenyl)-N-phenethylsulfamoyl)benzofuran-2-carboxylic acid] the figure was 50 to 100 µM. In turn, `CCOC(=O)c1oc2ccc(S(=O)(=O)N(CCc3ccccc3)Cc3ccc(C)cc3)cc2c1C` [Example M4-31, ethyl 3-methyl-5-(N-(4-methylbenzyl)-N-phenethylsulfamoyl)benzofuran-2-carboxylate] registered a half-inhibitory concentration (IC50) of 50 to 100 µM.

In turn, `CCOC(=O)c1oc2ccc(S(=O)(=O)N(CCc3ccccc3)c3ccccc3N3CC[N+](C)(C)CC3)cc2c1C` [Example M10-90, 4-(2-((2-(ethoxycarbonyl)-3-methyl-N-phenethylbenzofuran)-5-sulfonylamino)phenyl)-1,1-dimethylpiperazin-1-ium] had a half-inhibitory concentration (IC50) of 50 to 100 µM. Molecule `CCOC(=O)c1oc2ccc(S(=O)(=O)N(CCc3ccccc3)Cc3ccccc3N3CCN(S(C)(=O)=O)CC3)cc2c1C` [Example M10-102, ethyl 3-methyl-5-(N-(2-(4-methanesulfonylpiperazin-1-yl)benzyl)-N-phenethylsulfamoyl)benzofuran-2-carboxylate] displayed a concentration for half-maximal inhibition (IC50) of 50 to 100 µM. Take `Cc1c(C(=O)O)oc2ccc(S(=O)(=O)N(CCc3ccccc3)Cc3ccc(N4CCN(C)CC4)cc3)cc12` [Example F27-S80, 3-methyl-5-(N-(4-(4-methylpiperazin-1-yl)benzyl)-N-phenethylsulfamoyl)benzofuran-2-carboxylic acid]: the concentration for half-maximal inhibition (IC50) fell in the range of 50 to 100 µM. Same read-out and setting: then `CCOC(=O)c1oc2ccc(S(=O)(=O)N(CCc3ccccc3)Cc3cccc(-c4ccccc4)c3)cc2c1C` [Example M4-26, ethyl 3-methyl-5-(N-([1,1′-biphenyl]-3-ylmethyl)-N-phenethylsulfamoyl)benzofuran-2-carboxylate], with 50 to 100 µM; and `CCOC(=O)c1oc2ccc(S(=O)(=O)N(CCc3ccccc3)Cc3ccc(Cl)cc3)cc2c1C` [Example M4-29, ethyl 3-methyl-5-(N-(4-chlorobenzyl)-N-phenethylsulfamoyl)benzofuran-2-carboxylate], with 50 to 100 µM.

The same experiment, now with this note: Table 1.2, FXR antagonistic activity; TR-FRET with CDCA; geometric means of at least two independent runs.
Take `Cc1c(C(=O)O)oc2ccc(S(=O)(=O)N(CCc3ccccc3)c3ccccc3N3CCN(C(=O)c4ccno4)CC3)cc12` [Example F27-S146, 5-(N-(2-(4-(isoxazole-5-carbonyl)piperazin-1-yl)phenyl)-N-phenethylsulfamoyl)3-methylbenzofuran-2-carboxylic acid]: the IC50 was in the range of 0.1 to 10 µM. `CCOC(=O)c1oc2ccc(S(=O)(=O)N(CCc3ccccc3)c3ccccc3N3CCN(C(=O)c4ccc(F)cc4)CC3)cc2c1C` [Example M10-112, Ethyl 5-(N-(2-(4-(4-fluorobenzoyl)piperazin-1-yl)phenyl)-N-phenethylsulfamoyl)-3-methylbenzofuran-2-carboxylate] came in with a half-maximal inhibitory concentration (IC50) of 50 to 100 µM.

`CCOC(=O)c1oc2ccc(S(=O)(=O)N(CCc3ccccc3)c3ccccc3N3CC4CC3CN4C(=O)c3sccc3Br)cc2c1C` (stereo not drawn) [Example M10-157, Ethyl 5-(N-(2-(5-(3-bromothiophene-2-formyl)-2,5-diazabicyclo[2.2.1]hept-2-yl)phenyl)-N-phenethylsulfamoyl)3-methylbenzofuran-2-carboxylate]: the half-maximal inhibitory concentration (IC50) is 50 to 100 µM.

`Cc1c(C(=O)O)sc2ccc(S(=O)(=O)N(CCc3cccs3)c3ccccc3N3CCN(C(=O)c4sccc4Br)CC3)cc12` [Example F27-S183, 5-(N-(2-(4-(3-bromothiophene-2-carbonyl)piperazin-1-yl)phenyl)-N-(2-(thiophen-2-yl)ethyl)sulfamoyl)-3-methylbenzothiophene-2-carboxylic acid] registered an IC50 of 0.1 to 10 µM. The molecule `COc1ccccc1C(=O)N1CCN(c2ccccc2N(CCc2ccccc2)S(=O)(=O)c2ccc3oc(C(=O)O)c(C)c3c2)CC1` [Example F27-S136, 5-(N-(2-(4-(2-methoxybenzoyl)piperazin-1-yl)phenyl)-N-phenethylsulfamoyl)3-methylbenzofuran-2-carboxylic acid] displayed an IC50 of 0.1 to 10 µM. Same read-out and setting: then `CCOC(=O)c1oc2ccc(S(=O)(=O)N(CCc3ccccc3)c3ccccc3N3CCN(C(=O)c4ccc(C)s4)CC3)cc2c1C` [Example M10-139, Ethyl 5-(N-(2-(4-(5-methylthiophene-2-formyl)piperazin-1-yl)phenyl)-N-phenethylsulfamoyl)3-methylbenzofuran-2-carboxylate], with 50 to 100 µM; and `CCOC(=O)c1cc2cc(S(=O)(=O)N(CCc3ccccc3)c3ccccc3N3CCN(C(=O)c4sccc4Br)CC3)ccc2o1` [Example M10-162, Ethyl 5-(N-(2-(4-(3-bromothiophene-2-formyl)piperazin-1-yl)phenyl)-N-phenethylsulfamoyl)benzofuran-2-carboxylate], with 50 to 100 µM.

`CCOC(=O)c1sc2ccc(S(=O)(=O)N(CCc3ccc(C(=O)OC)cc3)c3ccccc3N3CCN(C(=O)c4sccc4Br)CC3)cc2c1C` [Example M10-167, ethyl 5-(N-(2-(4-(3-bromothiophene-2-carbonyl)piperazin-1-yl)phenyl)-N-(4-(methoxycarbonyl)phenethyl)sulfamoyl)-3-methylbenzothiophene-2-carboxylate] displayed an IC50 of 50 to 100 µM. `CCC(CC)C(=O)N1CCN(c2ccccc2N(CCc2ccccc2)S(=O)(=O)c2ccc3oc(C(=O)O)c(C)c3c2)CC1` [Example F27-S145, 5-(N-(2-(4-(2-ethylbutyryl)piperazin-1-yl)phenyl)-N-phenethylsulfamoyl)3-methylbenzofuran-2-carboxylic acid] came in with a concentration for half-maximal inhibition (IC50) of 0.1 to 10 µM.

In turn, `Cc1c(C(=O)O)oc2ccc(S(=O)(=O)N(CCc3ccccc3)c3ccccc3N3CCN(C(=O)c4ccc(F)cc4)CC3)cc12` [Example F27-S112, 5-(N-(2-(4-(4-fluorobenzoyl)piperazin-1-yl)phenyl)-N-phenethylsulfamoyl)-3-methylbenzofuran-2-carboxylic acid] returned an IC50 of 0.1 to 10 µM. Molecule `Cc1c(C(=O)O)oc2ccc(S(=O)(=O)N(CCc3ccccc3)c3ccccc3N3CCN(C(=O)c4sccc4Br)C(C)C3)cc12` (stereo not drawn) [Example F27-S156, 5-(N-(2-(4-(3-bromothiophene-2-formyl)-3-methylpiperazin-1-yl)phenyl)-N-phenethylsulfamoyl)3-methylbenzofuran-2-carboxylic acid] gave an IC50 of 0.1 to 10 µM. Still for that read-out and setting: with `CCOC(=O)c1oc2ccc(S(=O)(=O)N(CCc3ccccc3)c3ccccc3N3CCN(C(=O)c4ccc(NC(=O)OC(C)(C)C)cc4)CC3)cc2c1C` [Example M10-113, Ethyl-(N-(2-(4-(4-((tert-butoxycarbonyl)amino)benzoyl)piperazin-1-yl)phenyl)-N-phenethylsulfamoyl)-3-methylbenzofuran-2-carboxylate] the figure was 50 to 100 µM.

On to `CCOC(=O)c1sc2ccc(S(=O)(=O)N(CCCc3ccccc3)c3ccccc3N3CCN(C(=O)c4sccc4Br)CC3)cc2c1C` [Example M10-175, ethyl 5-(N-(2-(4-(3-bromothiophene-2-carbonyl)piperazin-1-yl)phenyl)-N-(3-phenylpropyl)sulfamoyl)-3-methylbenzothiophene-2-carboxylate], for which the 50% inhibitory concentration (IC50) was 50 to 100 µM. Turning to `Cc1c(C(=O)O)oc2ccc(S(=O)(=O)N(CCc3ccccc3)c3ccccc3N3CCN(C(=O)c4sccc4Cl)CC3)cc12` [Example F27-S126, 5-(N-(2-(4-(3-chlorothiophene-2-carbonyl)piperazin-1-yl)phenyl)-N-phenethylsulfamoyl)-3-methyl benzofuran-2-carboxylic acid], the IC50 lay within 0.1 to 10 µM.

In the case of `CCOC(=O)c1oc2ccc(S(=O)(=O)N(CCc3ccccc3)c3ccccc3N3CCN(C(=O)c4ccccc4OC)CC3)cc2c1C` [Example M10-136, Ethyl 5-(N-(2-(4-(2-methoxybenzoyl)piperazin-1-yl)phenyl)-N-phenethylsulfamoyl)3-methylbenzo furan-2-carboxylate], the IC50 was 50 to 100 µM.

For the molecule `CCOC(=O)c1oc2ccc(S(=O)(=O)N(CCc3ccccc3)c3ccccc3N3CCN(C(=O)c4ccsc4)CC3)cc2c1C` [Example M10-119, Ethyl 3-methyl-5-(N-phenethyl-N-(2-(4-(thiophene-3-carbonyl)piperazin-1-yl)phenyl)sulfamoyl)benzofuran-2-carboxylate], the IC50 is 50 to 100 µM. Still for that read-out and setting: then `CCOC(=O)c1sc2ccc(S(=O)(=O)N(CCc3ccccc3OC)c3ccccc3N3CCN(C(=O)c4sccc4Br)CC3)cc2c1C` [Example M10-173, Ethyl 5-(N-(2-(4-(3-bromothiophene-2-carbonyl)piperazin-1-yl)phenyl)-N-(2-methoxyphenethyl)sulfamoyl)-3-methylbenzothiophene-2-carboxylate], with 50 to 100 µM; and `CCOC(=O)c1cc2cc(S(=O)(=O)N(CCc3ccccc3)c3ccccc3N3CCN(C(=O)c4sccc4Br)CC3)ccc2s1` [Example M10-159, Ethyl 5-(N-(2-(4-(3-bromothiophene-2-carbonyl)piperazin-1-yl)phenyl)-N-phenethylsulfamoyl)benzo[b]thiophene-2-carboxylate], with 50 to 100 µM.
